The term inhibition denotes the drop in the measured response relative to a control, in per cent.

Structures are written as SMILES.

The record followed here is ChEMBL document CHEMBL5678810.

For assay [1], the target named is NUAK family SNF1-like kinase 2 (Homo sapiens) (UniProt Q9H093). The experiment in a line: Inhibition of T7 bacteriophage fused human SNARK at 10 uM by KINOMEscan analysis relative to control.
The target of assay [2] is Transient receptor potential cation channel subfamily M member 6 (Homo sapiens) (UniProt Q9BX84). The experiment in a line: Inhibition of T7 bacteriophage fused human TRPM6 at 10 uM by KINOMEscan analysis relative to control.
Assay [3] concerns the target Cyclin-dependent kinase 2 homolog (Plasmodium falciparum (isolate K1 / Thailand)) (UniProt Q07785). The experiment in a line: Inhibition of T7 bacteriophage fused Plasmodium falciparum PK5 at 10 uM by KINOMEscan analysis relative to control.
For assay [4], the target named is High affinity nerve growth factor receptor (Homo sapiens) (UniProt P04629). The experiment in a line: Inhibition of T7 bacteriophage fused human TRKA at 10 uM by KINOMEscan analysis relative to control.
Assay [5] addresses Mitogen-activated protein kinase kinase kinase 12 (Homo sapiens) (UniProt Q12852). The experiment in a line: Inhibition of T7 bacteriophage fused human DLK at 10 uM by KINOMEscan analysis relative to control; values are per cent of control.
Assay [6] has as its target SRSF protein kinase 1 (Homo sapiens) (UniProt Q96SB4). The experiment in a line: Inhibition of T7 bacteriophage fused human SRPK1 at 10 uM by KINOMEscan analysis relative to control.
For assay [7], the target named is T1, Dual specificity protein kinase TTK (Homo sapiens) (UniProt P33981).
T1 sequence (whole entry): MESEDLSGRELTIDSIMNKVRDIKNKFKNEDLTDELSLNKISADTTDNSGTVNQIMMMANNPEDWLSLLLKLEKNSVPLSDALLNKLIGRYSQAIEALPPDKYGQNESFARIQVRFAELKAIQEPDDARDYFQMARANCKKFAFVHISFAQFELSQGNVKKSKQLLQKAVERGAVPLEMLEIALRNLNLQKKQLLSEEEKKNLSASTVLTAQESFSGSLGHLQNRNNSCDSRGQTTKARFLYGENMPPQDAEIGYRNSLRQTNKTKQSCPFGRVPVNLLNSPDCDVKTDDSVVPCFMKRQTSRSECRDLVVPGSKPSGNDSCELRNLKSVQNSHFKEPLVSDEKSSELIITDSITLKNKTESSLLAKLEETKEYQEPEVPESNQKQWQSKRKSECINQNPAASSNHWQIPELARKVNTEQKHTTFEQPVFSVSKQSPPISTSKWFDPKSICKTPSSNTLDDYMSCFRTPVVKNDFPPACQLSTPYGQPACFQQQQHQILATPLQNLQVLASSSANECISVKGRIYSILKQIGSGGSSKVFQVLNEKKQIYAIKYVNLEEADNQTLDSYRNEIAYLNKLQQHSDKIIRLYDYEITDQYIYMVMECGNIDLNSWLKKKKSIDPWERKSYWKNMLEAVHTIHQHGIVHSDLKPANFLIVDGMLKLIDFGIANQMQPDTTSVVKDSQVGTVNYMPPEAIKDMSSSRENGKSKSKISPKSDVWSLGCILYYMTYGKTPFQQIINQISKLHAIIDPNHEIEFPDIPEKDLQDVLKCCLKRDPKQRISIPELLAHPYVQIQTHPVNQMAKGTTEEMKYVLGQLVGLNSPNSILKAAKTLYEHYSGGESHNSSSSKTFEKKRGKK
The experiment in a line: Inhibition of T7 bacteriophage fused human TTK at 10 uM by KINOMEscan analysis relative to control.

Assay [8] is described as follows: Inhibition of T7 bacteriophage fused Plasmodium falciparum CDPK1 at 10 uM by KINOMEscan analysis relative to control. Conditions: condition cancer.
Assay [9] concerns the target Tyrosine-protein kinase Srms (Homo sapiens) (UniProt Q9H3Y6). The experiment in a line: Inhibition of T7 bacteriophage fused human SRMS at 10 uM by KINOMEscan analysis relative to control.
Assay [10] deals with Serine/threonine-protein kinase NIM1 (Homo sapiens) (UniProt Q8IY84). The experiment in a line: Inhibition of T7 bacteriophage fused human NIM1 at 10 uM by KINOMEscan analysis relative to control.
Assay [11] concerns the target Tyrosine-protein kinase Tec (Homo sapiens) (UniProt P42680). The experiment in a line: Inhibition of T7 bacteriophage fused human TEC at 10 uM by KINOMEscan analysis relative to control.
The target in assay [12] is SRSF protein kinase 2 (Homo sapiens) (UniProt P78362). The experiment in a line: Inhibition of T7 bacteriophage fused human SRPK2 at 10 uM by KINOMEscan analysis relative to control.
Chain of SRSF protein kinase 2 (Homo sapiens) (P78362 whole entry, looked up, the tested form may be a part): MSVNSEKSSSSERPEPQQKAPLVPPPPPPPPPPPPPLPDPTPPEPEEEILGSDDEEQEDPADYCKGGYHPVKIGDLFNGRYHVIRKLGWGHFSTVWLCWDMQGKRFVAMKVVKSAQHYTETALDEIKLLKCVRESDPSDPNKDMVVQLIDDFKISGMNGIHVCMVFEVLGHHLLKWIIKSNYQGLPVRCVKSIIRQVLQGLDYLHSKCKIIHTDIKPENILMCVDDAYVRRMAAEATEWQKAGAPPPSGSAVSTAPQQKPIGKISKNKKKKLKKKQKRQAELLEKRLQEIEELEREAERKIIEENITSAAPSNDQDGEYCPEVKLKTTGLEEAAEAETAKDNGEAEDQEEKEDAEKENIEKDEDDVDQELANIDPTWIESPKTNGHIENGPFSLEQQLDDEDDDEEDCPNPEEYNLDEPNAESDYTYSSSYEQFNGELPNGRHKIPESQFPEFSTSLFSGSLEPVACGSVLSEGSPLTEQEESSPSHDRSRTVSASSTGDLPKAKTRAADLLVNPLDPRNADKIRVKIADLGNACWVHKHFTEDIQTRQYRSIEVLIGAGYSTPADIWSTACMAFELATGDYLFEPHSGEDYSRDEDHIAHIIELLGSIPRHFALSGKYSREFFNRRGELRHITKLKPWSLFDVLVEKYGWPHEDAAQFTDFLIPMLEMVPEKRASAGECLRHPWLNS
The target in assay [13] is Serine/threonine-protein kinase tousled-like 2 (Homo sapiens) (UniProt Q86UE8). The experiment in a line: Inhibition of T7 bacteriophage fused human TLK2 at 10 uM by KINOMEscan analysis relative to control.
Chain of Serine/threonine-protein kinase tousled-like 2 (Homo sapiens) (Q86UE8 whole entry, looked up, the tested form may be a part): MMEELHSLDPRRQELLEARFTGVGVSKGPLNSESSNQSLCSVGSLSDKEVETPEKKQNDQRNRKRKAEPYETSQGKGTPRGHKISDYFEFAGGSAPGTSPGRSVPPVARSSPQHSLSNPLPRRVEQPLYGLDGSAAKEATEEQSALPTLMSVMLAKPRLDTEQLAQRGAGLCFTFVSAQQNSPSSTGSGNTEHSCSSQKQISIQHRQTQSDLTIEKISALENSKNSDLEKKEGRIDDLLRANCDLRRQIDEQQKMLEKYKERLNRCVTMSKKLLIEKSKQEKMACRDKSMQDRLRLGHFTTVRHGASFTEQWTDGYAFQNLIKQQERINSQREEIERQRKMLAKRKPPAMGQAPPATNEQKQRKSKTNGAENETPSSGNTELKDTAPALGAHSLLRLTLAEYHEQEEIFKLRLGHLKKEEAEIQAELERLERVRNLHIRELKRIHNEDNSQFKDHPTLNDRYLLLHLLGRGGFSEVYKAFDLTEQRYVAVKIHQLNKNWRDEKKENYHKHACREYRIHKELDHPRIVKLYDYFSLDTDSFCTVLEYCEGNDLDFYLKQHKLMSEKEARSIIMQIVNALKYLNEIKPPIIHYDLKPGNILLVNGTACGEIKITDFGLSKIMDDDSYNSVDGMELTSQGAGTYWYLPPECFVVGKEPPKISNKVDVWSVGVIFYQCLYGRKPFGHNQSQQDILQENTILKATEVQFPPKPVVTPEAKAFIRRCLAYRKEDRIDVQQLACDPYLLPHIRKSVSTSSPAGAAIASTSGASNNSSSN
Assay [14] addresses Serine/threonine-protein kinase 35 (Homo sapiens) (UniProt Q8TDR2). The experiment in a line: Inhibition of T7 bacteriophage fused human STK35 at 10 uM by KINOMEscan analysis relative to control.
For assay [15], the target named is Serine/threonine-protein kinase MRCK gamma (Homo sapiens) (UniProt Q6DT37). The experiment in a line: Inhibition of T7 bacteriophage fused human DMPK2 at 10 uM by KINOMEscan analysis relative to control.
Assay [16] has as its target TGF-beta receptor type-1 (Homo sapiens) (UniProt P36897). The experiment in a line: Inhibition of T7 bacteriophage fused human TGFBR1 at 10 uM by KINOMEscan analysis relative to control.
Assay [17] deals with NT-3 growth factor receptor (Homo sapiens) (UniProt Q16288). The experiment in a line: Inhibition of T7 bacteriophage fused human TRKC at 10 uM by KINOMEscan analysis relative to control.
Chain of NT-3 growth factor receptor (Homo sapiens) (Q16288 32-839 limits assumed): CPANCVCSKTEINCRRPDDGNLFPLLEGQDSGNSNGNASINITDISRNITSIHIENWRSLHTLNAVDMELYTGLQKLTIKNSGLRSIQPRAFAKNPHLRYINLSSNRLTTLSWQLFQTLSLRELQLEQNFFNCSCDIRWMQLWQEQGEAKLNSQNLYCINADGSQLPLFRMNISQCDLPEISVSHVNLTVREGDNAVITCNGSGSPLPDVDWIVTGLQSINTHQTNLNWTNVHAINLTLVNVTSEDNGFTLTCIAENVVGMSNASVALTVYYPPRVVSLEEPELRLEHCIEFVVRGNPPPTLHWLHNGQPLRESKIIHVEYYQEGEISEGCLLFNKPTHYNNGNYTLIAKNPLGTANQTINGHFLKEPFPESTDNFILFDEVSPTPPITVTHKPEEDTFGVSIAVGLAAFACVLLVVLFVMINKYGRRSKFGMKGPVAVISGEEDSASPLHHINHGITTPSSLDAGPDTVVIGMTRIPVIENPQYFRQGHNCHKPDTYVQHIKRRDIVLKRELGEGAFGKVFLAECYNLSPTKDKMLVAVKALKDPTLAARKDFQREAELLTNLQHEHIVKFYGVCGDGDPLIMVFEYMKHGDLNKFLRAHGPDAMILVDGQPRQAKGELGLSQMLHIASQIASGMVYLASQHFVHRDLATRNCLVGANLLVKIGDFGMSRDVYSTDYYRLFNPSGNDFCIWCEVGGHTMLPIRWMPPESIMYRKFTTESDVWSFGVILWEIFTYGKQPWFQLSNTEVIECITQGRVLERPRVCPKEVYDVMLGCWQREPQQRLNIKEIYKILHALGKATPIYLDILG
Assay [18] deals with Testis-specific serine/threonine-protein kinase 1 (Homo sapiens) (UniProt Q9BXA7). The experiment in a line: Inhibition of T7 bacteriophage fused human TSSK1B at 10 uM by KINOMEscan analysis relative to control.
Assay [19] has as its target SNF-related serine/threonine-protein kinase (Homo sapiens) (UniProt Q9NRH2). The experiment in a line: Inhibition of T7 bacteriophage fused human SNRK at 10 uM by KINOMEscan analysis relative to control.
The target of assay [20] is Serine/threonine-protein kinase VRK2 (Homo sapiens) (UniProt Q86Y07). The experiment in a line: Inhibition of T7 bacteriophage fused human VRK2 at 10 uM by KINOMEscan analysis relative to control.
Assay [21] concerns the target Tyrosine-protein kinase TXK (Homo sapiens) (UniProt P42681). The experiment in a line: Inhibition of T7 bacteriophage fused human TXK at 10 uM by KINOMEscan analysis relative to control.
Assay [22] concerns the target Serine/threonine-protein kinase SIK1 (Homo sapiens) (UniProt P57059). The experiment in a line: Inhibition of T7 bacteriophage fused human SIK at 10 uM by KINOMEscan analysis relative to control.
The target in assay [23] is BDNF/NT-3 growth factors receptor (Homo sapiens) (UniProt Q16620). The experiment in a line: Inhibition of T7 bacteriophage fused human TRKB at 10 uM by KINOMEscan analysis relative to control.
Chain of BDNF/NT-3 growth factors receptor (Homo sapiens) (Q16620 32-822 limits assumed): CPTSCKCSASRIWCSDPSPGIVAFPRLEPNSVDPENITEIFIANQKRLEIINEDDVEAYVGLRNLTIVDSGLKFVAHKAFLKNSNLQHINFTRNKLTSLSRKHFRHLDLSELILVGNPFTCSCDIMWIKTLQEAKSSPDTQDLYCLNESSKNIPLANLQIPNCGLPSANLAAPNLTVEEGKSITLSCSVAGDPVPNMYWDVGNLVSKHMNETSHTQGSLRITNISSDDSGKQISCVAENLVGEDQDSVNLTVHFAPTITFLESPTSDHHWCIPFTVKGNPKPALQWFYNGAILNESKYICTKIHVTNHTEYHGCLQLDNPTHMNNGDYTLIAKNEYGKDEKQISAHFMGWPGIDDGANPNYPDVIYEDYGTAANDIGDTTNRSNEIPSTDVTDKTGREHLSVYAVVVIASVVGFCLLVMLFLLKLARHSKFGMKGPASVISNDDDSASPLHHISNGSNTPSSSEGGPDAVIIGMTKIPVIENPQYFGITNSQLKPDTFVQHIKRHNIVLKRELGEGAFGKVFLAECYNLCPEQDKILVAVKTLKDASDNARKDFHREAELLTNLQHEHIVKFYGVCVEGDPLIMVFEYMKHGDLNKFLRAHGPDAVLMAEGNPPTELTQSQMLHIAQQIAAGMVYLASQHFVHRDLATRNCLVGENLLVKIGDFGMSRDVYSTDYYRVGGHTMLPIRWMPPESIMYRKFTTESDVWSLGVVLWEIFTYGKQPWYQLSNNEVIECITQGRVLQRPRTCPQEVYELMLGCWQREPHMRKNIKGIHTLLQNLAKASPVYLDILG
Assay [24] has as its target Serine/threonine-protein kinase Sgk3 (Homo sapiens) (UniProt Q96BR1). The experiment in a line: Inhibition of T7 bacteriophage fused human SGK3 at 10 uM by KINOMEscan analysis relative to control.

Chain of Tyrosine-protein kinase TXK (Homo sapiens) (P42681 whole entry, the tested form may be a part): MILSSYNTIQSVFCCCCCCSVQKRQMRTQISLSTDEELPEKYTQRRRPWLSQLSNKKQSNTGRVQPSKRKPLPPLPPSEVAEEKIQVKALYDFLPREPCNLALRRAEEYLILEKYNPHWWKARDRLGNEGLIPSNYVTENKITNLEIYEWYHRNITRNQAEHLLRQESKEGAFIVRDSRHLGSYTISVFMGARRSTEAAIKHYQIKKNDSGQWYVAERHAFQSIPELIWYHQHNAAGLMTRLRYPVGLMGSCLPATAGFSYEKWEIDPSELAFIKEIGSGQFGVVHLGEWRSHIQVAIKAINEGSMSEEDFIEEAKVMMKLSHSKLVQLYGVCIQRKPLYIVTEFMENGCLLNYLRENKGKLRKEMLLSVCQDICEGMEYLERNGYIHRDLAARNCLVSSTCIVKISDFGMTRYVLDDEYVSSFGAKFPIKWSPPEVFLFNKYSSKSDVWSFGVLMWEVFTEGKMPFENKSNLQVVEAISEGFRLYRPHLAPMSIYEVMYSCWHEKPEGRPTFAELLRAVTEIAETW
Chain of SRSF protein kinase 1 (Homo sapiens) (Q96SB4 whole entry, the tested form may be a part): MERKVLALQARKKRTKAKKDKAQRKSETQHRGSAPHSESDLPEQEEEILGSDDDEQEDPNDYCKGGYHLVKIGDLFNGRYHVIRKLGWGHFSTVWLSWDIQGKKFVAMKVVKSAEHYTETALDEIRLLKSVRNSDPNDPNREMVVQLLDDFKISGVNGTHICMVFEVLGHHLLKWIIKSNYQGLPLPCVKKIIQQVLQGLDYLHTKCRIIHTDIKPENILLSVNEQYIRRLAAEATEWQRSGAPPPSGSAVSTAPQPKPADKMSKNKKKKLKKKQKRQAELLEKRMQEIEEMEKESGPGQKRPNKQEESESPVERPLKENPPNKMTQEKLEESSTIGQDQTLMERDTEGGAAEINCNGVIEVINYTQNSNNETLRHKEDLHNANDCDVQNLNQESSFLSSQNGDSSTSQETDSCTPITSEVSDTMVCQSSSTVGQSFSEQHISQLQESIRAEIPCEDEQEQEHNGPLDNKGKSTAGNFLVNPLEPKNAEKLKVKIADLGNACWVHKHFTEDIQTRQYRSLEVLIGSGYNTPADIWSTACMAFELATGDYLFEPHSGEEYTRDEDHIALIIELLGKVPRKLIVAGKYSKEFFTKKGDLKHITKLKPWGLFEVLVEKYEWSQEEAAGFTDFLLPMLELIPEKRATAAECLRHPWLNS
Chain of Tyrosine-protein kinase Srms (Homo sapiens) (Q9H3Y6 whole entry, the tested form may be a part): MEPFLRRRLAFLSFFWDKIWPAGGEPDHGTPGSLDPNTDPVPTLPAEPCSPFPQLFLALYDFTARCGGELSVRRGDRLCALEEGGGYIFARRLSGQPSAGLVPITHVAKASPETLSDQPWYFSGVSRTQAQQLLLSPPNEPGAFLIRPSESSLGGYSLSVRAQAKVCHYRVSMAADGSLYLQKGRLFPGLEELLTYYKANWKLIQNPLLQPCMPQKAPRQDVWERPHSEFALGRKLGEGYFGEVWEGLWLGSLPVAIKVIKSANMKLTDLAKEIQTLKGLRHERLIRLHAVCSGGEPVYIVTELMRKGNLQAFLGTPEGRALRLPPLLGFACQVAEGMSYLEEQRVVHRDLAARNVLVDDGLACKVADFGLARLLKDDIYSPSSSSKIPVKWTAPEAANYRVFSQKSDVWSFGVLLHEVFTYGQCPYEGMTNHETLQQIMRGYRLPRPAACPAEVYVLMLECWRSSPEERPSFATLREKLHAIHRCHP
Chain of Cyclin-dependent kinase 2 homolog (Plasmodium falciparum (isolate K1 / Thailand)) (Q07785 whole entry, the tested form may be a part): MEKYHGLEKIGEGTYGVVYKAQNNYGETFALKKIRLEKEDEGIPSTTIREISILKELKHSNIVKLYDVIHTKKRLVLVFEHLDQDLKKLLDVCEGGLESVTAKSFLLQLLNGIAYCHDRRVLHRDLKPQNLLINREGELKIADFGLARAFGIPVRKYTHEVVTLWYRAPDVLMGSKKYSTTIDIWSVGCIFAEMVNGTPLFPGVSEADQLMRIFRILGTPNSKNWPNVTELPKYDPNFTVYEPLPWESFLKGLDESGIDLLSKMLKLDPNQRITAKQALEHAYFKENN

`COc1cc(N2CCC(N3CCN(C)CC3)CC2)ccc1Nc1ncc2c(n1)N(C)c1ccccc1C(=O)N2C`: the inhibition in [1] amounted to 47%; in assay [2] it was 100%; in assay [3], 100%; in assay [4] it was 69%; in assay [6] it was 94%; in [7], 28%. Besides, the inhibition in [9] was determined as 77%; in assay [10], 100%; in assay [11], 100%; in [12], 100%; in [13], 99%; in [14], 100%. In addition, the inhibition worked out at 100% in assay [15]; 100% in assay [16]; 100% in [17]; 60% in assay [18]; 94% in assay [19]; 99% in assay [20]. Moreover, the inhibition came to 91% in [21], 77% in [22], 100% in assay [23] and 95% in assay [24]. Besides, in assay [5], the residual activity was 81%. In addition, the inhibition at 10 µM in [8] was determined as 100%.

For `COc1cc(C(=O)N2CCC(N3CCN(C)CC3)CC2)ccc1Nc1ncc2c(n1)N(C1CCCC1)c1ccccc1C(=O)N2C`, the inhibition in assay [1], in [2], in assay [9], in [14], in assay [17] and in assay [20] was 100% each time. Moreover, the inhibition in assay [24] amounted to 100%.

With `CCOc1cc(C(=O)N2CCC(N3CCN(C)CC3)CC2)ccc1Nc1ncc2c(n1)N(C1CCCC1)c1ccccc1C(=O)N2C`, the inhibition came out at 100% in [3]; 100% in assay [4]; 100% in assay [6]; 49% in [7]; 100% in assay [11]; 100% in [12]. The inhibition in [13] came to 100%; in [16], 100%; in assay [18], 100%; in assay [19], 52%; in [21] it was 100%; in assay [22], 100%. This compound displayed an inhibition in [23] of 100%. Moreover, in assay [5], the residual activity stood at 100%. Besides, the inhibition at 10 µM in assay [8] is 100%.
